The record followed here is patent US10450288B2, “Hydroxy formamide derivatives and their use” (GLAXOSMITHKLINE INTELLECTUAL PROPERTY (NO.2) LIMITED, priority 2014, dated 2019).

Counter-ions that a name gives are not always drawn.

The first test relates to human cardiac fibroblasts. In words: Cell-based inhibition assay of generation of procollagen I C-terminal propeptide (PICP), PICP ELISA. To be noted: Cardiac fibroblast; human cardiac fibroblasts, crowding media, 24 to 48 hr, PICP ELISA of media; read-out: pIC50, PICP cellular inhibition assay (converted). In short, it runs like this:
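Cardiac fibroblasts (passage ≤6) treated 24–48 h at 37 °C with compounds in ficoll crowding medium containing 100 μM ascorbic acid, DMSO <0.3%. PICP secreted into the medium was quantified by ELISA, normalised to untreated controls and fitted to log(inhibitor)–response to give pIC50.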
(In general: ELISA stands for enzyme-linked immunosorbent assay.)
Consider `CCCCC[C@H](CN(O)C=O)C(=O)NCNC(=O)c1ccc(-c2ccc(C(=O)O)cc2)o1` [Example 92, (R)-4-(5-(((2-((N-hydroxyformamido)methyl)heptanamido)methyl)carbamoyl)furan-2-yl)benzoic acid], for which the IC50 was less than 3.98 µM.

Regarding `CCCCC[C@H](CN(O)C=O)C(=O)NCNC(=O)c1ccc(-c2cccc(P(C)(=O)O)c2)o1` [Example 94, (3-(5-((((R)-2-((N-hydroxyformamido)methyl)heptanamido)methyl)carbamoyl)furan-2-yl)phenyl)(methyl)phosphinic acid], the IC50 is less than 3.98 µM.

Take `CCCCC[C@@H](C(=O)NCNC(=O)C1CCC(c2cc(OCC)cc(P(=O)(O)O)c2)O1)[C@@H](CC)N(O)C=O` (stereo partly drawn) [Example 97, (3-ethoxy-5-(5-((((R)-2-((R)-1-(N-hydroxyformamido)propyl)heptanamido)methyl)carbamoyl)tetrahydrofuran-2-yl)phenyl)phosphonic acid]: the IC50 is less than 3.98 µM.

As to `CCCCC[C@@H](C(=O)NCNC(=O)c1ccc(-c2cc(OCC)cc(C(=O)NCP(=O)(O)O)c2)o1)[C@@H](CC)N(O)C=O` [Example 100, ((3-ethoxy-5-(5-((((R)-2-((R)-1-(N-hydroxy-formamido)propyl)heptanamido)methyl)carbamoyl)furan-2-yl)benzamido)methyl) phosphonic acid], the IC50 is less than 3.98 µM.

`CCCCC[C@H](CN(O)C=O)C(=O)NCNC(=O)c1ccc(-c2cccc(OCC(F)F)c2)o1` [Example 102, (R)-5-(3-(2,2-difluoroethoxy)phenyl)-N-((2-((N-hydroxyformamido)methyl)heptanamido)methyl)furan-2-carboxamide]: the IC50 was less than 3.98 µM.

Take `CCCCC[C@H](CN(O)C=O)C(=O)NCNC(=O)c1ccc(-c2cccc(SCC)c2)o1` [Example 103, (R)-5-(3-(ethylthio)phenyl)-N-((2-((N-hydroxyformamido)methyl)heptanamido)methyl)furan-2-carboxamide]: the IC50 was less than 3.98 µM.

For `CCCCC[C@H](CN(O)C=O)C(=O)NCNC(=O)c1ccc(-c2cccc(SC)c2)o1` [Example 104, (R)-N-((2-((N-hydroxyformamido)methyl)heptanamido)methyl)-5-(3-(methylthio)phenyl)furan-2-carboxamide], the IC50 is less than 3.98 µM.

Take `CCCCC[C@H](CN(O)C=O)C(=O)NCNC(=O)c1ccc(-c2cccc([N+](=O)[O-])c2)o1` [Example 105, (R)—N-((2-((N-hydroxyformamido)methyl)heptanamido)methyl)-5-(3-nitrophenyl)furan-2-carboxamide]: the IC50 was less than 3.98 µM.

Regarding `CCCCC[C@H](CN(O)C=O)C(=O)NCNC(=O)c1ccc(-c2ccc3cnn(C)c3c2)o1` [Example 106, (R)—N-((2-((N-hydroxyformamido)methyl)heptanamido)methyl)-5-(1-methyl-1H-indazol-6-yl)furan-2-carboxamide], the IC50 was less than 3.98 µM.

As to `CCCCC[C@H](CN(O)C=O)C(=O)NCNC(=O)c1ccc(-c2cccc(P(=O)(O)O)c2)o1` [Example 108, (R)-(3-(5-(((2-((N-hydroxyformamido)methyl)heptanamido)methyl)carbamoyl)furan-2-yl)phenyl)phosphonic acid], the IC50 is less than 3.98 µM.

For the compound `CCCCC[C@@H](C(=O)NCNC(=O)c1ccc(-c2ccc(C(=O)O)c(CC(=O)O)c2)o1)[C@@H](CC)N(O)C=O` [Example 114], the IC50 is less than 3.98 µM.

Consider `CCOc1cc(C(=O)O)c(O)c(-c2ccc(C(=O)NCNC(=O)[C@H](CCc3ccccc3)[C@@H](CC)N(O)C=O)o2)c1` [Example 115, 5-ethoxy-2-hydroxy-3-(5-((((2R,3R)-3-(N-hydroxyformamido)-2-phenethylpentanamido)methyl)carbamoyl)furan-2-yl)benzoic acid], for which the IC50 is less than 3.98 µM.

With `CCOc1cc(-c2ccc(C(=O)NCNC(=O)[C@H](CCc3ccc4ccccc4c3)[C@@H](CC)N(O)C=O)o2)ccc1C(=O)N[C@@H](CC(=O)O)C(=O)O` [Example 117, (S)-2-(2-ethoxy-4-(5-((((2R,3R)-3-(N-hydroxyformamido)-2-(2-(naphthalen-2-yl)ethyl)pentana-mido)methyl)carbamoyl)furan-2-yl)benzamido) succinic acid], the IC50 was less than 3.98 µM.

On to `CC[C@H]([C@@H](CCc1ccc(F)cc1F)C(=O)NCNC(=O)c1ccc(-c2cc(OCC(=O)O)cc(C(=O)O)c2O)o1)N(O)C=O` [Example 118, 5-(carboxymethoxy)-3-(5-((((2R,3R)-2-(2,4-difluorophenethyl)-3-(N-hydroxyformamido)pentanamido)methyl)carbamoyl)furan-2-yl)-2-hydroxybenzoic acid], for which the IC50 is less than 3.98 µM.

For the compound `CCCCC[C@@H](C(=O)NCNC(=O)c1ccc(-c2ccc(C(=O)N[C@@H](CC(=O)O)C(=O)O)cc2)o1)[C@@H](CC)N(O)C=O` [Example 119, (S)-2-(4-(5-((((R)-2-((R)-1-(N-hydroxyformamido)propyl)heptanamido)methyl)carbamoyl)furan-2-yl)benzamido) succinic acid], the IC50 is less than 3.98 µM.

In the case of `CCCCC[C@@H](C(=O)NCNC(=O)c1ccc(-c2ccc(C(=O)N[C@@H](CC(=O)O)C(=O)O)c(C)c2)o1)[C@@H](CC)N(O)C=O` [Example 120, (S)-2-(4-(5-((((R)-2-((R)-1-(N-hydroxyformamido)propyl)heptanamido)methyl)carbamoyl)furan-2-yl)-2-methylbenzamido) succinic acid], the IC50 was less than 3.98 µM.

Take `CCCCC[C@@H](C(=O)NCNC(=O)c1ccc(-c2cc(OCC(=O)O)cc(C(=O)N[C@@H](CC(=O)O)C(=O)O)c2)o1)[C@@H](CC)N(O)C=O` [Example 125, (S)-2-(3-(carboxymethoxy)-5-(5-((((R)-2-((R)-1-(N-hydroxyformamido)propyl)heptanamido)methyl)carbamoyl)furan-2-yl)benzamido) succinic acid]: the IC50 is less than 3.98 µM.

In the case of `CCCCC[C@@H](C(=O)NCNC(=O)c1ccc(-c2ccc(C(=O)O)c(C(=O)O)c2)o1)[C@@H](CC)N(O)C=O` [Example 129, 4-(5-((((R)-2-((R)-1-(N-hydroxyformamido)propyl)heptanamido)methyl)carbamoyl)furan-2-yl)phthalic acid], the IC50 is less than 3.98 µM.

Consider `CCCCC[C@@H](C(=O)NCNC(=O)c1ccc(-c2cc(CN(C)CC(=O)O)cc(OCC)c2)o1)[C@@H](CC)N(O)C=O` [Example 130, 2-((3-ethoxy-5-(5-((((R)-2-((R)-1-(N-hydroxyformamido)propyl)heptanamido)methyl)carbamoyl)furan-2-yl)benzyl)(methyl)amino)acetic acid], for which the IC50 was less than 3.98 µM.

`CCCCC[C@@H](C(=O)NCNC(=O)c1ccc(-c2cc(OCC(N)=O)cc(C(=O)O)c2)o1)[C@@H](CC)N(O)C=O` [Example 131, 3-(2-amino-2-oxoethoxy)-5-(5-((((R)-2-((R)-1-(N-hydroxyformamido)propyl)heptanamido)methyl)carbamoyl)furan-2-yl)benzoic acid]: the IC50 is less than 3.98 µM.

On to `CCCCC[C@@H](C(=O)NCNC(=O)c1ccc(-c2ccc(C(=O)N[C@H](CC(=O)O)C(=O)O)cc2)o1)[C@@H](CC)N(O)C=O` [Example 133], for which the IC50 is less than 3.98 µM.

`CCCCC[C@@H](C(=O)NCNC(=O)c1ccc(-c2ccc(C(=O)N[C@@H](CCC(=O)O)C(=O)O)cc2)o1)[C@@H](CC)N(O)C=O` [Example 134, (S)-2-(4-(5-((((R)-2-((R)-1-(N-hydroxyformamido)propyl)heptanamido)methyl)carbamoyl)furan-2-yl)benzamido) pentanedioic acid]: the IC50 is less than 3.98 µM.

Turning to `CCCCC[C@@H](C(=O)NCNC(=O)c1ccc(-c2ccc(C(=O)N[C@@H](CCC(=O)O)C(=O)O)c(OCC)c2)o1)[C@@H](CC)N(O)C=O` [Example 135, (S)-2-(2-ethoxy-4-(5-((((R)-2-((R)-1-(N-hydroxyformamido)propyl)heptanamido)methyl)carbamoyl)furan-2-yl)benzamido) pentanedioic acid], the IC50 was less than 3.98 µM.

In the case of `CCCCC[C@@H](C(=O)NCNC(=O)c1ccc(-c2ccc(C(=O)N(CC(=O)O)CC(=O)O)cc2)o1)[C@@H](CC)N(O)C=O` [Example 136, 2,2′-((4-(5-((((R)-2-((R)-1-(N-hydroxyformamido)propyl)heptanamido)methyl)carbamoyl)furan-2-yl)benzoyl)azanediyl)diacetic acid], the IC50 is less than 3.98 µM.

On to `CCCCC[C@@H](C(=O)NCNC(=O)c1ccc(-c2cc(CNCP(=O)(O)O)cc(OCC)c2)o1)[C@@H](CC)N(O)C=O` [Example 137, (((3-ethoxy-5-(5-((((R)-2-((R)-1-(N-hydroxyformamido)propyl)heptanamido)methyl)carbamoyl)furan-2-yl)benzyl)amino)methyl)phosphonic acid, trifluoroacetic acid salt], for which the IC50 is less than 3.98 µM.

For `CCCCC[C@@H](C(=O)NCNC(=O)c1ccc(-c2cc(O)cc(P(=O)(O)O)c2)o1)[C@@H](CC)N(O)C=O` [Example 138, (3-hydroxy-5-(5-((((R)-2-((R)-1-(N-hydroxyformamido)propyl)heptanamido)methyl)carbamoyl)furan-2-yl)phenyl) phosphonic acid], the IC50 is less than 3.98 µM.

For the compound `CCOc1cc(-c2ccc(C(=O)NCNC(=O)[C@H](CCc3ccccc3)[C@@H](CC)N(O)C=O)o2)cc(P(=O)(O)O)c1` [Example 140], the IC50 was less than 3.98 µM.

The test is the same for the next values; noted with them: Homo sapiens, Cardiac fibroblast, read-out: pIC50, PICP cellular inhibition assay (converted).
For `CCCCC[C@H](CN(O)C=O)C(=O)NCNC(=O)c1ccc(-c2cccc(P(=O)(O)OC)c2)o1` [Example 95, methyl hydrogen (3-(5-((((R)-2-((N-hydroxyformamido)methyl)heptanamido)methyl)carbamoyl)furan-2-yl)phenyl)phosphonate], the IC50 was less than 3.98 µM.

`CCCCC[C@@H](C(=O)NCNC(=O)c1ccc(-c2cc(OCC)cc(P(=O)(O)OC)c2)o1)[C@@H](CC)N(O)C=O` [Example 101, methyl hydrogen (3-ethoxy-5-(5-((((R)-2-((R)-1-(N-hydroxyformamido)propyl)heptanamido)methyl)carbamoyl)furan-2-yl)phenyl)phosphonate]: the IC50 was less than 3.98 µM.
